Results reported in ChEMBL document CHEMBL2390858, “Design, synthesis and anti-tuberculosis activity of 1-adamantyl-3-heteroaryl ureas with improved in vitro pharmacokinetic properties” (Bioorg Med Chem, 2013).
In brackets after ≈: the same amount, converted by molar mass.

Key:
Escherichia coli = assay: microbe, parasite or virus in culture; settings: K-12
Bacillus subtilis = assay: microbe, parasite or virus in culture
Streptococcus pneumoniae = assay: microbe, parasite or virus in culture
[1] = target: T1, Bifunctional epoxide hydrolase 2 (Homo sapiens, UniProt P34913)
T1 sequence (P34913 whole entry): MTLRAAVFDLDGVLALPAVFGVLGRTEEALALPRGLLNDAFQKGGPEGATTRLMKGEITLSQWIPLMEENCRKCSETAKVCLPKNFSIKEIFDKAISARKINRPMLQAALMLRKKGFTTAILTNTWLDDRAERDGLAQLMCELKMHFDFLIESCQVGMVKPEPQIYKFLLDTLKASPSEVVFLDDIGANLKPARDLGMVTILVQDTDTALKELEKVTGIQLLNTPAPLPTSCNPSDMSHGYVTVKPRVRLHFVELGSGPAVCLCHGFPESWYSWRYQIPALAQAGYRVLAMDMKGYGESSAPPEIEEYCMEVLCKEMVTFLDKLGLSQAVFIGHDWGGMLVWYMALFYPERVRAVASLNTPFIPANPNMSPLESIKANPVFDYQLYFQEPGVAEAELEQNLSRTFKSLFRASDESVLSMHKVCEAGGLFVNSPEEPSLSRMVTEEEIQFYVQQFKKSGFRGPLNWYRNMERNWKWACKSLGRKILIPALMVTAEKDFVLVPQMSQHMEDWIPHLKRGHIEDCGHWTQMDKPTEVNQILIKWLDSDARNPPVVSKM

Burkholderia cepacia = assay: microbe, parasite or virus in culture
Staphylococcus aureus [2] = assay: microbe, parasite or virus in culture; settings: NRS70
Staphylococcus aureus [3] = assay: microbe, parasite or virus in culture; settings: ATCC 29213
Proteus vulgaris = assay: microbe, parasite or virus in culture
[4] = tested on: Mycobacterium tuberculosis; assay: microbe, parasite or virus in culture; settings: H37Rv, 168 h
[5] = buffer, 18 h, pH 7.4
Bacillus anthracis = assay: microbe, parasite or virus in culture; settings: Sterne
Streptococcus pyogenes = assay: microbe, parasite or virus in culture
Klebsiella pneumoniae = assay: microbe, parasite or virus in culture
Pseudomonas aeruginosa = assay: microbe, parasite or virus in culture
Proteus mirabilis = assay: microbe, parasite or virus in culture
Enterococcus faecalis = assay: microbe, parasite or virus in culture
Acinetobacter = assay: microbe, parasite or virus in culture

Row | Compound | MIC (Escherichia coli) | MIC (Bacillus subtilis) | MIC (Streptococcus pneumoniae) | IC50 [1] | MIC (Burkholderia cepacia) | MIC (Staphylococcus aureus [2]) | MIC (Staphylococcus aureus [3]) | MIC (Proteus vulgaris) | MIC [4] | solubility [5] | MIC (Bacillus anthracis) | MIC (Streptococcus pyogenes) | MIC (Klebsiella pneumoniae) | MIC (Pseudomonas aeruginosa) | MIC (Proteus mirabilis) | MIC (Enterococcus faecalis) | MIC (Acinetobacter)
1 | Cn1cc(NC(=O)NC23CC4CC(CC(C4)C2)C3)cn1 | > 200 µg/mL | > 200 µg/mL | > 200 µg/mL | 488 nM | > 200 µg/mL | > 200 µg/mL | > 200 µg/mL | > 200 µg/mL | 50 µg/mL (≈ 182 µM) | 41.1 µg/mL (≈ 150 µM) | > 200 µg/mL | > 200 µg/mL | > 200 µg/mL | > 200 µg/mL | > 200 µg/mL | > 200 µg/mL | > 200 µg/mL
2 | O=C(Nc1ncco1)NC1C2CC3CC(C2)CC1C3 (stereo not given) | > 200 µg/mL | > 200 µg/mL | > 200 µg/mL | 46 nM | 6.25 µg/mL (≈ 23.9 µM) | 200 µg/mL (≈ 765 µM) | > 200 µg/mL | > 200 µg/mL | 12.5 µg/mL (≈ 47.8 µM) | 14.9 µg/mL (≈ 57 µM) | > 200 µg/mL | > 200 µg/mL | > 200 µg/mL | > 200 µg/mL | > 200 µg/mL | > 200 µg/mL | > 200 µg/mL
3 | O=C(Nc1ccc(S(=O)(=O)Nc2ccc(Cl)nn2)cc1)NC12CC3CC(CC(C3)C1)C2 | > 200 µg/mL | > 200 µg/mL | 100 µg/mL (≈ 216 µM) | 19 nM | 100 µg/mL (≈ 216 µM) | – | 50 µg/mL (≈ 108 µM) | > 200 µg/mL | – | 20.7 µg/mL (≈ 44.8 µM) | 1.56 µg/mL (≈ 3.38 µM) | > 200 µg/mL | > 200 µg/mL | > 200 µg/mL | 100 µg/mL (≈ 216 µM) | 100 µg/mL (≈ 216 µM) | > 200 µg/mL
4 | Cc1onc(NC(=O)NC23CC4CC(CC(C4)C2)C3)c1Br | 50 µg/mL (≈ 141 µM) | > 200 µg/mL | > 200 µg/mL | 0.8 nM | – | 200 µg/mL (≈ 565 µM) | 50 µg/mL (≈ 141 µM) | > 200 µg/mL | 100 µg/mL (≈ 282 µM) | 0.1 µg/mL (≈ 0.282 µM) | > 200 µg/mL | > 200 µg/mL | > 200 µg/mL | > 200 µg/mL | > 200 µg/mL | – | > 200 µg/mL
5 | Cc1cc(CNC(=O)NC23CC4CC(CC(C4)C2)C3)no1 | > 200 µg/mL | > 200 µg/mL | > 200 µg/mL | 1550 nM | > 200 µg/mL | > 200 µg/mL | > 200 µg/mL | > 200 µg/mL | > 50 µg/mL | 3 µg/mL (≈ 10.4 µM) | > 200 µg/mL | > 200 µg/mL | > 200 µg/mL | > 200 µg/mL | > 200 µg/mL | > 200 µg/mL | > 200 µg/mL
6 | Cc1cc(NC(=O)NC23CC4CC(CC(C4)C2)C3)on1 | 200 µg/mL (≈ 726 µM) | > 200 µg/mL | > 200 µg/mL | 117 nM | 100 µg/mL (≈ 363 µM) | > 200 µg/mL | 200 µg/mL (≈ 726 µM) | > 200 µg/mL | 12.5 µg/mL (≈ 45.4 µM) | 5.5 µg/mL (≈ 20 µM) | > 200 µg/mL | > 200 µg/mL | > 200 µg/mL | > 200 µg/mL | > 200 µg/mL | 100 µg/mL (≈ 363 µM) | > 200 µg/mL
7 | Cc1noc(NC(=O)NC23CC4CC(CC(C4)C2)C3)c1Cl | > 200 µg/mL | > 200 µg/mL | > 200 µg/mL | 0.5 nM | > 200 µg/mL | > 200 µg/mL | > 200 µg/mL | > 200 µg/mL | 100 µg/mL (≈ 323 µM) | 1.5 µg/mL (≈ 4.84 µM) | – | > 200 µg/mL | > 200 µg/mL | > 200 µg/mL | > 200 µg/mL | > 200 µg/mL | –
8 | Cc1noc(NC(=O)NC23CC4CC(CC(C4)C2)C3)c1C#N | > 200 µg/mL | > 200 µg/mL | > 200 µg/mL | 25 nM | 200 µg/mL (≈ 666 µM) | > 200 µg/mL | > 200 µg/mL | > 200 µg/mL | 100 µg/mL (≈ 333 µM) | 1.2 µg/mL (≈ 4 µM) | > 200 µg/mL | > 200 µg/mL | > 200 µg/mL | > 200 µg/mL | > 200 µg/mL | 200 µg/mL (≈ 666 µM) | > 200 µg/mL
